The results in this text go back to patent publication US10647680B2, “Urea compound, preparation method therefor and medical use thereof” (Ancureall Pharmaceutical (Shanghai) Co., Ltd., priority 2016, dated 2020).

Test [1] deals with OCI-AML3 (NPMc+ mutant type). The test is described as follows: In vitro growth inhibition (GI50), OCI-AML3. The class given is cell-based. The following applies: Homo sapiens, OCI-AML-3; Cell lines of leukemia; read-out: GI 50 OCI- AML3 NPMc+.
In the next test the test system is HL-60 (FLT3 wild type). Kind of test: In vitro growth inhibition (GI50), HL-60. The following applies: Homo sapiens, Cell lines of leukemia, read-out: GI 50 HL60 FLT3 (WT). The class given is cell-based. An outline of the steps: (§1)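 Cells in RPMI1640 with 10% FBS, seeded at 5–10×10^4 cells/mL, exposed next day to compound at 5,000 nM down to 0.01 nM (2- or 10-fold dilutions, ≤1% solvent) for 3–5 days at 37 °C. CCK8 absorbance at 450 nm, growth rate relative to pre-treatment and solvent controls, GI50 from concentration–growth curve.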

In test [2] the test system is KG-1 (expressing FGFR1OP2-FGFR1 fusion protein). The test is described as follows: In vitro growth inhibition (GI50), KG-1. It counts as cell-based. The note with it: Homo sapiens; Cell lines of leukemia; read-out: GI 50 KG-1 FGFR1OP 2-FGFR1.
The test system of test [3] is MOLM-13 (FLT3 ITD+/− mutant type). The test is described as follows: In vitro growth inhibition (GI50), MOLM-13. The following applies: Homo sapiens, MOLM-13; Cell lines of leukemia; read-out: GI 50 MOLM-13 FLT3 (ITD+/−). The class given is cell-based, human.
Test [4] deals with Kasumi-1 (c-Kit N822K mutant type). Kind of test: In vitro growth inhibition (GI50), Kasumi-1. The following applies: Homo sapiens, Cell lines of leukemia, read-out: GI 50 Kasumi-1 Kit (N822K). The class given is cell-based. An outline of the steps:
as §1

A further test has as its system U937 (FLT3 wild-type). The test is described as follows: In vitro growth inhibition (GI50), U937. The following applies: Homo sapiens, U-937; Cell lines of leukemia; read-out: GI 50 U937 FLT 3(WT). It counts as cell-based.
Test [5] deals with RAMOS (positive expression of Brutons tyrosine protein kinase). The test is described as follows: In vitro growth inhibition (GI50), RAMOS. It counts as cell-based. The following applies: Homo sapiens, Cell lines of leukemia, read-out: GI 50 Ramos BTK.
In a further test the test system is RS4; 11 (FLT3 wild type). The test is described as follows: In vitro growth inhibition (GI50), RS4; 11. The note with it: Homo sapiens, RS4-11; Cell lines of leukemia; read-out: GI 50 RS4: 11 FLT3 (WT). The class given is cell-based, human.
Test [6] concerns K562 (FLT3 negative expression, positive expression of BCR-ABL fusion protein). The test is described as follows: In vitro growth inhibition (GI50), K562. It counts as cell-based. The following applies: Homo sapiens, Cell lines of leukemia, read-out: GI 50 K562 BCR-ABL.
For test [7], the system named is MV4-11 (FLT3 ITD+/+ mutant type). Kind of test: In vitro growth inhibition (GI50), MV4-11. The class given is cell-based, human. The following applies: Homo sapiens, MV4-11; Cell lines of leukemia; read-out: GI 50 MV4-11 FLT3 (ITD +/+).

Molecules are shown by their SMILES.

Consider `CC(C)(C)c1ccn(C(=O)Nc2ccc(-n3cnc4ccccc43)cc2)n1` [Compound 130, 3-tert-butyl-pyrazol-1-carboxylic acid (4-benzimidazol-1-yl-phenyl)-amide], for which the GI50 was over 1 µM in test [1]; over 1 µM with HL-60 (FLT3 wild type); over 1 µM in test [2]; 0.1 to 1 µM in test [3]; over 1 µM in [4]; over 1 µM in the test with U937 (FLT3 wild-type). The GI50 in [5] was over 1 µM; with RS4; 11 (FLT3 wild type) it was over 1 µM; in test [6], over 1 µM; in test [7], 0.1 to 1 µM.

In the case of `CC(C)(C)c1cc(NC(=O)Nc2ccc(-n3cnc4ccccc43)cc2)n(-c2ccc(OC(F)(F)F)cc2)n1` [Compound 107, 1-(4-benzimidazol-1-yl-phenyl)-3-[5-tert-butyl-2-(4-trifluoromethoxy-phenyl)-2H-pyrazol-3-yl]-urea], the GI50 in test [1] is over 1 µM; with HL-60 (FLT3 wild type) it was over 1 µM; in test [2], over 1 µM; in [3], 0.01 to 0.1 µM; in [4], over 1 µM; with U937 (FLT3 wild-type), over 1 µM. Further, the GI50 in test [5] is over 1 µM; in the test with RS4; 11 (FLT3 wild type), over 1 µM; in [6], over 1 µM; in [7], 0.01 to 0.1 µM.

`CC(C)(C)c1cc(NC(=O)Nc2ccc(-n3cnc4ccccc43)cc2)no1` [Compound 3, 1-(4-benzimidazol-1-yl-phenyl)-3-(5-tert-butyl-isoxazol-3-yl)-urea]: the GI50 is over 1 µM in [1]; over 1 µM with HL-60 (FLT3 wild type); over 1 µM in [2]; 0.0001 to 0.001 µM in test [3]; over 1 µM in test [4]; over 1 µM with U937 (FLT3 wild-type). The GI50 is over 1 µM in [5], over 1 µM with RS4; 11 (FLT3 wild type), over 1 µM in [6] and 0.0001 to 0.001 µM in test [7].

`CN1CCN(CCCOc2ccc3c(c2)ncn3-c2ccc(NC(=O)Nc3cc(C(C)(C)C)n[nH]3)cc2)CC1` [Compound 92, 1-(5-tert-butyl-2H-pyrazol-3-yl)-3-(4-{5-[3-(4-methyl-piperazin-1-yl)-propoxyl]-benzimidazol-1-yl}-phenyl)-urea]: the GI50 in test [1] is over 1 µM; in the test on HL-60 (FLT3 wild type), over 1 µM; in [2], over 1 µM; in test [3] it was 0.0001 to 0.001 µM; in [4], over 1 µM; in the test with U937 (FLT3 wild-type), 0.1 to 1 µM. The GI50 in [5] was 0.1 to 1 µM; in the test with RS4; 11 (FLT3 wild type), 0.01 to 0.1 µM; in test [6], over 1 µM; in test [7] it was 0.0001 to 0.001 µM.

With `COc1ccc2c(c1)ncn2-c1ccc(NC(=O)Nc2cc(C(C)(C)C)on2)cc1` [Compound 5, 1-(5-tert-butyl-isoxazol-3-yl)-3-[4-(5-methoxyl-benzimidazol-1-yl)-phenyl]-urea], the GI50 in test [1] was over 1 µM; in the test on HL-60 (FLT3 wild type), over 1 µM; in test [2] it was over 1 µM; in [3], 0.0001 to 0.001 µM; in test [4], over 1 µM; in the test on U937 (FLT3 wild-type) it was over 1 µM. Also, the GI50 in test [5] was over 1 µM; in the test with RS4; 11 (FLT3 wild type), over 1 µM; in test [6], over 1 µM; in [7], 0.0001 to 0.001 µM.

Regarding `CCOC(=O)c1ccc(-n2nc(C(C)(C)C)cc2NC(=O)Nc2ccc(-n3cnc4ccccc43)cc2)cc1` [Compound 111, ethyl 4-{5-[3-(4-benzimidazol-1-yl-phenyl)-carbamido]-3-tert-butyl-pyrazol-1-yl}-benzoate], the GI50 in [1] is over 1 µM; in the test on HL-60 (FLT3 wild type) it was over 1 µM; in test [2], over 1 µM; in [3], 0.001 to 0.01 µM; in test [4], over 1 µM; in the test with U937 (FLT3 wild-type), over 1 µM. Moreover, the GI50 in [5] is over 1 µM; in the test on RS4; 11 (FLT3 wild type), 0.1 to 1 µM; in [6], 0.1 to 1 µM; in test [7], 0.001 to 0.01 µM.

As to `CC(C)(C)c1cc(NC(=O)Nc2ccc(-n3cnc4ccccc43)c(F)c2)no1` [Compound 39, 1-(4-benzimidazol-1-yl-3-fluoro-phenyl)-3-(5-tert-butyl-isoxazol-3-yl)-urea], the GI50 in test [1] was over 1 µM; in the test with HL-60 (FLT3 wild type) it was over 1 µM; in test [2] it was over 1 µM; in test [3], 0.1 to 1 µM; in test [4], over 1 µM; in the test with U937 (FLT3 wild-type), over 1 µM. In addition, the GI50 in [5] is over 1 µM; in the test on RS4; 11 (FLT3 wild type), over 1 µM; in [6] it was over 1 µM; in test [7] it was 0.1 to 1 µM.

For the molecule `Cc1ccc2c(c1)ncn2-c1ccc(NC(=O)Nc2cc(C(C)(C)C)on2)cc1` [Compound 24, 1-(5-tert-butyl-isoxazol-3-yl)-3-[4-(5-methyl-benzimidazol-1-yl)-phenyl]-urea], the GI50 in test [1] was over 1 µM; with HL-60 (FLT3 wild type), over 1 µM; in test [2], over 1 µM; in test [3] it was 0.001 to 0.01 µM; in test [4], over 1 µM; in the test with U937 (FLT3 wild-type), over 1 µM. Also, the GI50 was over 1 µM in [5], 0.1 to 1 µM in the test with RS4; 11 (FLT3 wild type), 0.1 to 1 µM in [6] and 0.001 to 0.01 µM in test [7].

Turning to `CC1(COc2ccc3c(c2)ncn3-c2ccc(NC(=O)Nc3cc(C(C)(C)C)n[nH]3)cc2)COC1` [Compound 85, 1-(5-tert-butyl-2H-pyrazol-3-yl)-3-{4-[5-(3-methyl-oxetane-3-ylmethoxy)-benzimidazol-1-yl]-phenyl]urea], the GI50 was over 1 µM in test [1]; over 1 µM in the test with HL-60 (FLT3 wild type); over 1 µM in [2]; 0.0001 to 0.001 µM in [3]; over 1 µM in test [4]; over 1 µM in the test on U937 (FLT3 wild-type). The GI50 in test [5] was over 1 µM; with RS4; 11 (FLT3 wild type), over 1 µM; in test [6] it was over 1 µM; in [7], 0.0001 to 0.001 µM.

As for `CN1CCN(CCCOc2ccc3c(c2)ncn3-c2ccc(NC(=O)n3nc(C(C)(C)C)cc3N)cc2)CC1` [Compound 118, 5-amino-3-tert-butyl-pyrazol-1-carboxylic acid (4-{5-[3-(4-methyl-piperazin-1-yl)-propoxyl]-benzimidazol-1-yl}-phenyl)-amide], the GI50 in test [1] is over 1 µM; in the test with HL-60 (FLT3 wild type) it was over 1 µM; in test [2], over 1 µM; in test [3], 0.001 to 0.01 µM; in test [4] it was over 1 µM; with U937 (FLT3 wild-type), over 1 µM. Besides, the GI50 in test [5] is over 1 µM; in the test on RS4; 11 (FLT3 wild type), over 1 µM; in [6], over 1 µM; in test [7], 0.001 to 0.01 µM.

In the case of `CCOCCOc1ccc2c(c1)ncn2-c1ccc(NC(=O)Nc2cc(C(C)(C)C)n[nH]2)cc1` [Compound 78, 1-(5-tert-butyl-2H-pyrazol-3-yl)-3-{4-[5-(2-ethoxyl-ethoxyl)-benzimidazol-1-yl]-phenyl}-urea], the GI50 in test [1] was over 1 µM; with HL-60 (FLT3 wild type) it was over 1 µM; in test [2] it was over 1 µM; in test [3] it was 0.0001 to 0.001 µM; in test [4], over 1 µM; in the test with U937 (FLT3 wild-type), over 1 µM. The GI50 in [5] was over 1 µM; in the test on RS4; 11 (FLT3 wild type), over 1 µM; in test [6] it was over 1 µM; in test [7] it was 0.0001 to 0.001 µM.

On to `CC(C)(C)c1cc(NC(=O)Nc2ccc(-n3cnc4ccccc43)c(Cl)c2)no1` [Compound 38, 1-(4-benzimidazol-1-yl-3-chloro-phenyl)-3-(5-tert-butyl-isoxazol-3-yl)-urea], for which the GI50 was over 1 µM in test [1]; over 1 µM in the test with HL-60 (FLT3 wild type); over 1 µM in [2]; 0.1 to 1 µM in test [3]; over 1 µM in test [4]; over 1 µM in the test on U937 (FLT3 wild-type). Also, the GI50 in test [5] was over 1 µM; in the test with RS4; 11 (FLT3 wild type), over 1 µM; in [6], over 1 µM; in [7] it was 0.1 to 1 µM.

Turning to `CC(C)(C)c1cc(NC(=O)Nc2cc(F)c(-n3cnc4ccccc43)c(F)c2)no1` [Compound 40, 1-(4-benzimidazol-1-yl-3,5-difluoro-phenyl)-3-(5-tert-butyl-isoxazol-3-yl)-urea], the GI50 in [1] is over 1 µM; in the test on HL-60 (FLT3 wild type), over 1 µM; in [2], over 1 µM; in [3], 0.1 to 1 µM; in test [4], over 1 µM; in the test with U937 (FLT3 wild-type), over 1 µM. The GI50 in test [5] is over 1 µM; in the test on RS4; 11 (FLT3 wild type) it was over 1 µM; in test [6] it was over 1 µM; in [7], 0.1 to 1 µM.
